From publication PMC6437697 (Journal of Medicinal Chemistry, 2019)

Experiments:
Assay in all cases: KINOMEscan
Type in all cases: binding
Settings in all cases: read-out: % control activity remaining
NEK5 = target: T1, NEK5 (Homo sapiens, UniProt Q6P3R8)
T1 construct: purchased Eurofins DiscoverX KINOMEscan
T1 sequence (Q6P3R8 1-708): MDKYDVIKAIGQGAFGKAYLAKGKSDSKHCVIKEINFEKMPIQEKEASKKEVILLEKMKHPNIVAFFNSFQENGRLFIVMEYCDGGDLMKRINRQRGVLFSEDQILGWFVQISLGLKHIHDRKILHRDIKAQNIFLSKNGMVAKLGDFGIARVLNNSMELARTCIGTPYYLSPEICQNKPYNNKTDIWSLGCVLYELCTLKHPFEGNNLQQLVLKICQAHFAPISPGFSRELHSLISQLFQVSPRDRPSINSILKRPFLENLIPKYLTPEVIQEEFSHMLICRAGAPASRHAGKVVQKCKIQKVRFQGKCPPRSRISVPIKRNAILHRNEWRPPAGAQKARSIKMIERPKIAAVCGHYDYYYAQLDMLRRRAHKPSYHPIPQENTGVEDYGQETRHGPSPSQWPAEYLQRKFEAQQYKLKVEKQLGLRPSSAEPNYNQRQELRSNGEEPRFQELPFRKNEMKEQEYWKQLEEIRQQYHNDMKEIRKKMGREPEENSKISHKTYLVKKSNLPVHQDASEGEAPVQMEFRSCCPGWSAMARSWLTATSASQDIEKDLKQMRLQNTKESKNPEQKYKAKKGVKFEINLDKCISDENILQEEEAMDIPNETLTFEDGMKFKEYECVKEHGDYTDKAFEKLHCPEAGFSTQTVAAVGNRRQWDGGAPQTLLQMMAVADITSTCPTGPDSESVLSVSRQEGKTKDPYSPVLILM

FGFR4 = target: T2, FGFR4 (Homo sapiens, UniProt P22455)
T2 construct: purchased Eurofins DiscoverX KINOMEscan
T2 sequence (P22455 22-802): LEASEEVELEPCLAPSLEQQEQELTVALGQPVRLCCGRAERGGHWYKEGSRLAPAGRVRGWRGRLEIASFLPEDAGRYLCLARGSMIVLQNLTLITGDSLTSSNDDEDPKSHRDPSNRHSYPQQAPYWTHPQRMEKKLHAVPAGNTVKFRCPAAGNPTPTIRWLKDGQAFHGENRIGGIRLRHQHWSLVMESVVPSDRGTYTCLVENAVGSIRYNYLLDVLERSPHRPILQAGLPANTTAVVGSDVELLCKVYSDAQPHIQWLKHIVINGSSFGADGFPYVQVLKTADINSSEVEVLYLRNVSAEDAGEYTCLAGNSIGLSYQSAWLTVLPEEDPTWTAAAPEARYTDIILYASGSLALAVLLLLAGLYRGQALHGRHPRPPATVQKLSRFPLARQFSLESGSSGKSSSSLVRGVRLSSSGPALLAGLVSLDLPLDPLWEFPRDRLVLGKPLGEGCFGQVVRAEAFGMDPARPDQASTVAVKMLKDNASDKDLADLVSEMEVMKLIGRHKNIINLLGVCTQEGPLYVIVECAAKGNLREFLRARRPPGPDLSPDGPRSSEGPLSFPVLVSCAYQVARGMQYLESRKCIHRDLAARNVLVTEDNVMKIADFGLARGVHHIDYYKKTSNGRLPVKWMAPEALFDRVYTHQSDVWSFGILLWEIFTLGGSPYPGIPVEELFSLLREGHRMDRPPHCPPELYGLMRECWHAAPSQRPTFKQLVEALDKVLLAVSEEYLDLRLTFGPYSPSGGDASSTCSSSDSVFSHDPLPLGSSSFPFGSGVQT

[1] = target: T3, RSK4(Kin.Dom.2-C-terminal) (Homo sapiens, UniProt Q9UK32)
T3 construct: RSK4(Kin.Dom.2-C-terminal); purchased Eurofins DiscoverX KINOMEscan
T3 sequence (Q9UK32 426-683 limits assumed): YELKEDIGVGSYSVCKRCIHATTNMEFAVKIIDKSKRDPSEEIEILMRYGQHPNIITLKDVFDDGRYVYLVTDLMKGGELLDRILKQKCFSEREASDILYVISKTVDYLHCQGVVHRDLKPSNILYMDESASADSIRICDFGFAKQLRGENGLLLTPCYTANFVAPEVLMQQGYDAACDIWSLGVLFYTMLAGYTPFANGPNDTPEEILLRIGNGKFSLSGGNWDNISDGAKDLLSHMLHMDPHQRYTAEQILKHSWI

RET(M918T) = target: T4, RET(M918T) (Homo sapiens, UniProt P07949, M918T)
T4 construct: purchased Eurofins DiscoverX KINOMEscan
T4 sequence (P07949 29-1114 M918T): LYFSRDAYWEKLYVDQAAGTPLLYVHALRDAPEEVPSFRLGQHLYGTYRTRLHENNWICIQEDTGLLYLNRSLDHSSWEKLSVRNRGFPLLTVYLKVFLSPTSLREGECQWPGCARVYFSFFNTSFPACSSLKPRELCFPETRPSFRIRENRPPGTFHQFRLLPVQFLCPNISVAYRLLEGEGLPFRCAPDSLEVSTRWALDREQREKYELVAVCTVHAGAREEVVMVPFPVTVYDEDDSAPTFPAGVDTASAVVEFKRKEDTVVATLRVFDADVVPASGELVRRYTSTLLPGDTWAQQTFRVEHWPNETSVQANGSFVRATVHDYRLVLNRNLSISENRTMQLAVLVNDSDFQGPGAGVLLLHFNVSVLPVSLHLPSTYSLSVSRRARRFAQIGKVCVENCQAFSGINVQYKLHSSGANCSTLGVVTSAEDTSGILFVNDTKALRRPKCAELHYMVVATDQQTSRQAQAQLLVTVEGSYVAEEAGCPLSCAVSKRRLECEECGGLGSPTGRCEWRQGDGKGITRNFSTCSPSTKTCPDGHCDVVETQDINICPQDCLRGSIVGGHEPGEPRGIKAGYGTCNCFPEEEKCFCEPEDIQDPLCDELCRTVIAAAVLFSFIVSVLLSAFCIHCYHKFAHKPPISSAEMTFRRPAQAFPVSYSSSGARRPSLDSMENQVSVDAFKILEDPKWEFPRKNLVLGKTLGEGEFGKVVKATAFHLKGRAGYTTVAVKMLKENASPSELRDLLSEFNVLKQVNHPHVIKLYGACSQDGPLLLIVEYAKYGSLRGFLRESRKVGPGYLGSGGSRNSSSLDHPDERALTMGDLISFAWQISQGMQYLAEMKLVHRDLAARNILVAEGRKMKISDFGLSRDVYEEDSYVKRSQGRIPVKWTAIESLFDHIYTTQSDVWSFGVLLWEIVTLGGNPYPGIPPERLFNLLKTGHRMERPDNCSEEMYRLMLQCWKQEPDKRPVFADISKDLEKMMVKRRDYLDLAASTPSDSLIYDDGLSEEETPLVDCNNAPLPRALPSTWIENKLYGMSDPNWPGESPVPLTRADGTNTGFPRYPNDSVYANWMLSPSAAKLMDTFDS

MARK4 = target: T5, MARK4 (Homo sapiens, UniProt Q96L34)
T5 construct: purchased Eurofins DiscoverX KINOMEscan
T5 sequence (Q96L34 1-752): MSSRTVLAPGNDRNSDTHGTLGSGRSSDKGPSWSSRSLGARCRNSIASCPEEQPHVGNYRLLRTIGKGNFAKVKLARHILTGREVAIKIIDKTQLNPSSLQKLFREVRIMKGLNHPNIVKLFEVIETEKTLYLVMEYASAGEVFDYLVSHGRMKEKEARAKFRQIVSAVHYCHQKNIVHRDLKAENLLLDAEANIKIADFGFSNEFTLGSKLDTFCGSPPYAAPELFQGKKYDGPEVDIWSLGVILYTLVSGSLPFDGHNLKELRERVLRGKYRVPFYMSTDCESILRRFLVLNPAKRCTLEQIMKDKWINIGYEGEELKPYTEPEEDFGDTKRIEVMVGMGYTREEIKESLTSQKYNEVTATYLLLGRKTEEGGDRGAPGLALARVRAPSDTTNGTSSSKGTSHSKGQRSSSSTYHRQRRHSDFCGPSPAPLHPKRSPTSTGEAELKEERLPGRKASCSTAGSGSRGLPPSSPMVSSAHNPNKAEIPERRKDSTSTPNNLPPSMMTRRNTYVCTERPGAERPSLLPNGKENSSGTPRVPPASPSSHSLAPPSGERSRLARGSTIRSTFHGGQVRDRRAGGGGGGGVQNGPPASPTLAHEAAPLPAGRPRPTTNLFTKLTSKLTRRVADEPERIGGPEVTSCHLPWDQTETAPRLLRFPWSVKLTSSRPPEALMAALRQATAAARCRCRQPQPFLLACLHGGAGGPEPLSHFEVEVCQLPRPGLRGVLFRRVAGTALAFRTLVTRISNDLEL

RIPK1 = target: T6, RIPK1 (Homo sapiens, UniProt Q13546)
T6 construct: purchased Eurofins DiscoverX KINOMEscan
T6 sequence (Q13546 1-671): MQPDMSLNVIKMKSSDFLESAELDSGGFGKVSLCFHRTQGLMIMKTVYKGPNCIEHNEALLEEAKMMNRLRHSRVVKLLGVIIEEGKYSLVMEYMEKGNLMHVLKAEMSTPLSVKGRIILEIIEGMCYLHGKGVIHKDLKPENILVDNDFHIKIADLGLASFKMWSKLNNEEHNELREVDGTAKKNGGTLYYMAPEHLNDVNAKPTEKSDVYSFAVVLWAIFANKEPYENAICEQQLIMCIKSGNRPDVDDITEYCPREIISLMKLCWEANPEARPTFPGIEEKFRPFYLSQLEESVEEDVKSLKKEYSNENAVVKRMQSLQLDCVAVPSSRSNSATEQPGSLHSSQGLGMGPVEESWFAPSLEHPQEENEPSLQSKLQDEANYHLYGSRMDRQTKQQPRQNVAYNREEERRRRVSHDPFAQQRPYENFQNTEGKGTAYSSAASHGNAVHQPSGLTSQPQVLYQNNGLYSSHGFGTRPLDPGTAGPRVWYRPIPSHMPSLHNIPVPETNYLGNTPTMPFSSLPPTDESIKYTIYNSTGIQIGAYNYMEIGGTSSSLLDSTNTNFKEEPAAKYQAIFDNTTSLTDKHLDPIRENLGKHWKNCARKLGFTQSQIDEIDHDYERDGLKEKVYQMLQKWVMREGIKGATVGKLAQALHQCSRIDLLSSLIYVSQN

SMILES | remaining binding at 1 µM (NEK5) [%] | remaining binding at 1 µM (FGFR4) [%] | remaining binding at 1 µM [1] [%] | remaining binding at 1 µM (RET(M918T)) [%] | remaining binding at 1 µM (MARK4) [%] | remaining binding at 1 µM (RIPK1) [%]
CN1CCC(CNc2cc(Cl)nn3c(-c4cc5nc(Nc6ccccc6)[nH]c5cc4F)cnc23)CC1 [compound 31, 6-Chloro-3-(6-fluoro-2-(phenylamino)-1H-benzo[d]imidazol-5-yl)-N-((1-methylpiperidin-4-yl)methyl)imidazo[1,2-b]pyridazin-8-amine] | 96 | 98 | 88 | 80 | 93 | 94
O=C(CN1CCOCC1)N[C@H]1CC[C@H](Nc2cc(Cl)nn3c(-c4ccc5[nH]ncc5c4)cnc23)CC1 [compound 26] | 86 | 99 | 56 | 92 | 95 | 74
Clc1cc(NCC2CC2)c2ncc(-c3ccc4[nH]ncc4c3)n2n1 [compound 2, 6-Chloro-N-(cyclopropylmethyl)-3-(1H-indazol-5-yl)imidazo[1,2-b]pyridazin-8-amine] | 93 | 94 | 92 | 100 | 92 | 91
